Data set [1] in a line: In vitro liver microsomal stability, human. To be noted: human liver microsome 0.5 mg/mL, 37 °C. In kind it is in vitro ADME. From the text: Table 2. Results for in vitro liver microsomal metabolic stability
On the technique in general: Liver microsomes are vesicles of endoplasmic reticulum, rich in cytochrome P450 enzymes.

The next data set concerns AsPc-1 cells. As to the kind of experiment: Inhibitory activity for AsPc-1 cell proliferation (CCK-8). In kind it is cell-based, human. To be noted: Homo sapiens, ASPC1, 72 h incubation.
A further data set relates to Capan-1 cells. In words: Inhibitory activity for Capan-1 cell proliferation (CCK-8). In kind it is cell-based. To be noted: Homo sapiens, CAPAN-1, 120 h, 5 days incubation. The method in brief: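 Capan-1 cells were seeded at 1.5 × 10^4 cells/mL and exposed to compound for 5 days. CCK-8 was added for 4 h, with absorbance read at 450 nm. IC50 came from a four-parameter dose-response fit.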

Data set [2] can be described thus: In vivo pharmacokinetics in mice. To be noted: mouse, plasma, po, ICR mice, IG, 10 mg/kg. On the procedure: ICR mice weighing 20 g to 24 g were randomized into groups with 9 mice in each group after 3 to 5 days of acclimatization, and intragastric administration of the experimental compounds was performed at a dose of 10 mg/kg.
The test animals (ICR mice) were fasted for 12 h before administration and fed 4 h after administration, and were given free access to water before, after, and during the experiment.
After intragastric administration, about 0.1 mL of blood was collected via the orbital sinus at 0.25 h (15 min), 0.5 h (30 min), 1 h, 2 h, 4 h, 6 h, 8 h, and 10 h (each mouse was subjected to blood collection at 3 to 4 time points, with 3 mice per time point). Following anticoagulation with EDTA-K2, the blood samples were transferred to a centrifuge within 30 min and then centrifuged at 4000 rpm for 10 min at 4 °C to separate the plasma. All the plasma samples were collected and immediately stored at -20 °C for testing.
20 µL of the plasma sample to be tested and the standard curve sample were pipetted, and 400 µL of acetonitrile solution containing an internal standard (20 ng/mL) was added. The mixture was shaken and mixed well for 10 min, and centrifuged at 13000 rpm for 10 min. 50 µL of the supernatant was taken and diluted with 100 µL of ultrapure water. After being mixed well, 0.5 µL of the resulting sample was subjected to LC/MS/MS, and a chromatogram was recorded.
Oral exposure of the compounds of the present disclosure was evaluated by in vivo pharmacokinetic experiments in mice.

The structures appear in SMILES notation. pIC50: −log10 of the molar value.

The term pIC50 denotes −log10 of the IC50, conventionally taken in molar units. A lower pIC50 goes with a large IC50. Usually Cmax stands for the peak of the concentration-time curve. As usually defined, the Tmax is the time at which the peak concentration occurs. What is called AUC(0-t) is exposure summed from dosing to a finite time, without extrapolation to infinity. Low values mean low exposure, high ones high exposure.

In the case of `C#Cc1c(F)ccc2cc(O)cc(-c3nc4c5c(nc(OCC67CCCN6CCC7)nc5c3F)N(C(C)c3cccnc3N)[C@@H](C)CO4)c12` (single isomer, unassigned) [Example 97], the “The remaining amount % (T = 60 min) (0.5 mg/mL) Human liver microsome” value (“The remaining amount % (T = 60 min)” below) in data set [1] is on record as more than 40%. Also, the pIC50 in the data set with AsPc-1 cells is not below 7.00; with Capan-1 cells, more than 7.00.

With `C#Cc1c(F)ccc2cc(O)cc(-c3nc4c5c(nc(O[C@@H](C)[C@@H]6CCCN6C)nc5c3F)N(C(C)c3cccnc3N)[C@@H](C)CO4)c12` (single isomer, unassigned) [Example 107], in data set [1], the “The remaining amount % (T = 60 min)” value is more than 40%. For the same molecule, in the data set with Capan-1 cells, the negative-log IC50 (pIC50) was more than 7.00.

Take `CC(c1cccnc1N)N1c2nc(OC[C@@H]3CCCN3C)nc3c(F)c(-c4cc(N)cc(Cl)c4C(F)(F)F)nc(c23)OC[C@@H]1C` (single isomer, unassigned) [Example 162]: in data set [1], the “The remaining amount % (T = 60 min)” value is more than 40%. In data set [2], the concentration peaked (Cmax) at 38.4 ng/mL and the time of peak concentration (Tmax) came out at 1 h. Besides, in data set [2] (gavage parameters were fitted to 6 h), the AUC(0-t) at 6 h stood at 156 ng·h/mL. Also, the pIC50 in the data set with Capan-1 cells is more than 7.00.

The values are drawn from patent EP4570805A1, “TRICYCLIC COMPOUNDS AND MEDICAL USE THEREOF” (Chia Tai Tianqing Pharmaceutical Group Co., Ltd., priority 2022, dated 2024).
